Our source for the TGI values is PubChem BioAssay (NCI).

Some test systems named below: SNB-78 CNS; DMS 273 small cell lung; LXFL 529 NSCLC; P388/ADR leukemia; HOP-18 NSCLC; P388 leukemia; SN12K1 renal.
What all share (experiment): NCI tumour cell line growth inhibition, 48 h

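Dose response: 5 concentrations. Exposure: 48 h. Format: 96-well plates. Endpoint: linear interpolation; highest concentration if not reached. TGI denotes the concentration required for complete inhibition of growth.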

As for `COc1cccc(-c2nccc3c(OCc4ccccc4)c(OC)c(OC)cc23)c1`, the TGI in the test with SNB-78 CNS, in the test with DMS 273 small cell lung and with LXFL 529 NSCLC was more than 100 µM in each case.
Regarding `C[n+]1c2ccccc2c(/C=N\NS(=O)(=O)c2ccc(Cl)cc2)c2ccccc21`, the TGI in the test on SNB-78 CNS and in the test with DMS 273 small cell lung was more than 100 µM throughout.
As to `CCN(CC)CCOc1ccc(C(O)(Cc2ccc(OC)cc2)c2ccccc2)cc1` (centres undefined), the TGI was 44.7 µM with SNB-78 CNS, 28.3 µM with DMS 273 small cell lung and 37.2 µM in the test on LXFL 529 NSCLC.
With `CCN(CC)CCOC(=O)Cc1cccc2c(=O)cc(-c3ccccc3)oc12`, the TGI was more than 625 µM in the test with P388/ADR leukemia; more than 175 µM in the test with SNB-78 CNS; more than 625 µM in the test with DMS 273 small cell lung; more than 126 µM in the test on HOP-18 NSCLC; more than 625 µM with P388 leukemia; 127 µM in the test on SN12K1 renal.
